Assay results as given in patent US12606517B2, “Ibuprofen ester derivative and emulsion preparation thereof” (NANJING HERON PHARMACEUTICAL SCIENCE AND TECHNOLOGY CO., …, priority 2021, dated 2026).
Entries after “also recorded” stand apart in the source; their conditions may differ.

What was measured:
[1] = Pharmacokinetics of PEG400 solution versus emulsion injection in rats (Test Example 5); format: in vivo; conditions: tail vein, equimolar dose
Description: The PEG solution (3250 μL) of the test compound was pipetted into a 10 mL EP tube, 1750 μL of normal saline was added into the tube with the dispensing gun, and the mixture was vortexed to be uniformly mixed to obtain a dosing solution with a concentration of 1.3 mg/mL and a volume of 5 mL.
Method for preparing the test solution of N9(S) (emulsion injection): an emulsion injection (215 μL) containing N9(S) compound (the content of which was 60 mg/mL) was added into a 15 mL EP tube and 10 mL of normal saline was added into the tube with a dispensing gun to obtain a dosing solution with a concentration of 1.3 mg/mL and […].

[2] = Metabolism of the compound in human plasma in vitro; format: in vitro ADME
Description: In the present application, the conversion characteristics of Compound N9 and its isomers were evaluated by establishing an in vitro human plasma metabolism model. The test scheme was as follows: • (1) stock solutions (40 mM) of Compounds N9, N9(S) and N9(R) in pure acetonitrile were formulated respectively, and a stock solution (40 mM) of ibuprofen in pure acetonitrile was formulated; • (2) 25 μL stock solution of ibuprofen was mixed with 1 mL of human plasma and vortexed for 30 s. […]

Remaining amount of a prodrug compound (%) ([2]; 37° C., 120 min): 45.0 ± 2.1%
Structure (SMILES): CCOC(=O)OC(CC)OC(=O)[C@@H](C)c1ccc(CC(C)C)cc1 (stereo partly drawn) [N9(S)]
drug-time curve of dexibuprofen in vivo versus arginine solution of dexibuprofen (in words) ([1]; PEG400 solubilized solution): basically coincide | drug-time curve of dexibuprofen in vivo versus arginine solution of dexibuprofen (in words) ([1]; emulsion injection): basically coincide | hydrolysis / metabolic rate in plasma (in words) ([2]; comparison between isomers): faster hydrolysis rate in plasma than N9(R); also recorded: faster metabolic rate than the racemate N9
